Experimental data published in ChEMBL document CHEMBL1129173, “New class of potent ligands for the human peripheral cannabinoid receptor” (Bioorg Med Chem Lett, 1996).

Columns and labels:
Cannabinoid receptor 1 = Cannabinoid receptor 1 (Homo sapiens, UniProt P21554); assay: Evaluated for binding affinity against recombinant human central cannabinoid receptor 1
Cannabinoid receptor 2 = Cannabinoid receptor 2 (Homo sapiens, UniProt P34972); assay: Evaluated for binding affinity against recombinant human peripheral cannabinoid receptor 2
Chain of Cannabinoid receptor 2 (P34972 whole entry): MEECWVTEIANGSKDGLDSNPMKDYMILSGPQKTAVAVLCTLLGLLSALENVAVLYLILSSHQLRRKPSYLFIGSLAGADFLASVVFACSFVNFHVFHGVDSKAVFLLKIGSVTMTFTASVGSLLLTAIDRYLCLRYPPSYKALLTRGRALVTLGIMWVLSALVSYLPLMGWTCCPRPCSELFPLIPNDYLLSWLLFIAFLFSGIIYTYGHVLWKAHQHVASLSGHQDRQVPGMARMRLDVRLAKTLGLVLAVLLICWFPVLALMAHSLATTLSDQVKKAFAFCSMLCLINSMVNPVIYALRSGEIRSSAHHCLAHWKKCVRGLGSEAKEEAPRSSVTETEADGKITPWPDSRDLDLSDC

Chain of Cannabinoid receptor 1 (P21554 whole entry): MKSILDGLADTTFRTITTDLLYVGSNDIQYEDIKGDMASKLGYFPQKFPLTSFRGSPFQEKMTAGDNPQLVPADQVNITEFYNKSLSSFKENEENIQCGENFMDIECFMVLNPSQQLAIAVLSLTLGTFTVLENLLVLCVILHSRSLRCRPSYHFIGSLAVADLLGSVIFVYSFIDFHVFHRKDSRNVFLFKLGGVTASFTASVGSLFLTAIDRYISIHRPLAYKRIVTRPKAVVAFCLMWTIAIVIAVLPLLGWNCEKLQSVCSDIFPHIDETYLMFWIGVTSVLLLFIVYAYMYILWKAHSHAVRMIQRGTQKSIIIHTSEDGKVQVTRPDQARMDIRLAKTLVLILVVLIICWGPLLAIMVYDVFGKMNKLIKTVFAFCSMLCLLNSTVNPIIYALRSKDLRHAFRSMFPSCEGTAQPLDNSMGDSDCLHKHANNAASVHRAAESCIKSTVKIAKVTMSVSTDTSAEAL

Structure (SMILES)	Ki (Cannabinoid receptor 1)	Ki (Cannabinoid receptor 2)
COc1ccc2c(c1)c(CC(=O)N1CCOCC1)c(C)n2C(=O)c1c(Cl)cccc1Cl	2.55 µM	0.059 µM
COc1ccc2c(c1)c(CCN1CCOCC1)c(C)n2C(=O)c1cccc(Cl)c1Cl	1.92 µM	0.012 µM
COc1ccc2c(c1)c(CC(=O)N1CCOCC1)c(C)n2C(=O)c1cccc(Cl)c1Cl	2.04 µM	0.014 µM
COc1ccc2c(c1)c(CN1CCOCC1)c(C)n2C(=O)c1cccc(Cl)c1Cl	3.36 µM	0.022 µM
COc1ccc2c(c1)c(CC(=O)N1CCOCC1)c(C)n2C(=O)c1cccc(Cl)c1	16.8 µM	0.354 µM
Cc1c(C(=O)c2cccc3ccccc23)c2ccccc2n1CCN1CCOCC1	0.638 µM	0.014 µM
COc1ccc2c(c1)c(CCN1CCOCC1)c(C)n2C(=O)c1ccc(Cl)cc1	10.3 µM	0.213 µM
COC(=O)Cc1c(C)n(C(=O)c2ccc(Cl)cc2)c2ccc(OC)cc12	> 20 µM	4.02 µM
COC(=O)Cc1c(C)n(C(=O)c2ccccc2Cl)c2ccc(OC)cc12	1.72 µM	0.397 µM
Cc1c(CN2CCOCC2)c2ccccc2n1C(=O)c1cccc2ccccc12	0.877 µM	0.0085 µM
Cc1c(CCN2CCOCC2)c2ccccc2n1C(=O)c1cccc(Cl)c1Cl	3.19 µM	0.027 µM
COc1ccc2c(c1)c(CC(=O)N1CCOCC1)c(C)n2C(=O)c1ccccc1Cl	3.6 µM	0.069 µM
COc1ccc2c(c1)c(CC(=O)N1CCOCC1)c(C)n2C(=O)c1ccc(Cl)cc1 [INDOMETHACIN MORPHOLINYLAMIDE]	> 20 µM	0.435 µM
Cc1c(CN2CCOCC2)c2ccccc2n1-c1cccc2ccccc12	6.68 µM	7.84 µM
COc1ccc2c(c1)c(CC(=O)N1CCOCC1)c(C)n2Cc1cccc(Cl)c1Cl	> 20 µM	1.05 µM
Cc1c(CCN2CCOCC2)c2ccccc2n1C(=O)c1cccc2ccccc12	2.18 µM	0.216 µM
COc1ccc2c(c1)c(CC(=O)N1CCOCC1)c(C)n2C(=O)c1ccc(F)cc1Cl	5.57 µM	0.134 µM
COC(=O)Cc1c(C)n(C(=O)c2cccc3ccccc23)c2ccc(OC)cc12	4.61 µM	0.142 µM
COc1ccc2c(c1)c(CC(=O)O)c(C)n2C(=O)c1ccc(Cl)cc1 [INDOMETHACIN]	–	> 20 µM
